Assay results as given in PubChem BioAssay (NCI).
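A five-concentration, 48-hour dose response in 96-well plates underlies each endpoint, interpolated linearly between surrounding concentrations. TGI marks complete inhibition of growth.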 Where a SMILES comes first, the peptide text is derived from it. The star is where a group is joined. Cbz = O=C(OCc1ccccc1)*

What was measured:
Assay in all cases: NCI anticancer screen, dose series, 48 h
LOX IMVI melanoma = test system: LOX IMVI melanoma
KM12 colon = test system: KM12 colon
UACC-257 melanoma = test system: UACC-257 melanoma
RPMI-8226 leukemia = test system: RPMI-8226 leukemia
DU-145 prostate = test system: DU-145 prostate
SK-OV-3 ovarian = test system: SK-OV-3 ovarian
A549 NSCLC = test system: A549 NSCLC
SK-MEL-28 melanoma = test system: SK-MEL-28 melanoma
MDA-N = test system: MDA-N
CAKI-1 renal = test system: CAKI-1 renal
SW-620 colon = test system: SW-620 colon
HCT-15 colon = test system: HCT-15 colon
BT-549 breast = test system: BT-549 breast

| Compound | TGI (LOX IMVI melanoma) | TGI (KM12 colon) | TGI (UACC-257 melanoma) | TGI (RPMI-8226 leukemia) | TGI (DU-145 prostate) | TGI (SK-OV-3 ovarian) | TGI (A549 NSCLC) | TGI (SK-MEL-28 melanoma) | TGI (MDA-N) | TGI (CAKI-1 renal) | TGI (SW-620 colon) | TGI (HCT-15 colon) | TGI (BT-549 breast) |
| --- | --- | --- | --- | --- | --- | --- | --- | --- | --- | --- | --- | --- | --- |
| CCOC(=O)[C@@H](NC(=O)OC(C)(C)C)[C@@H](O)C(=O)OCC | > 100 µM | > 100 µM | > 100 µM | > 100 µM | > 100 µM | > 100 µM | > 100 µM | > 100 µM | > 100 µM | > 100 µM | > 100 µM | > 100 µM | > 100 µM |
| CCOC(=O)C(NC(=O)c1cccc(Cl)c1)(Nc1ccc(S(=O)(=O)Nc2cc(C)nc(C)n2)cc1)C(F)(F)F (stereo not given) | > 100 µM | > 100 µM | > 100 µM | > 100 µM | > 100 µM | > 100 µM | > 100 µM | > 100 µM | – | > 100 µM | > 100 µM | > 100 µM | – |
| COc1ccc2nc3cc([N+](=O)[O-])ccc3c(Nc3ccc(S(=O)(=O)Nc4ncccn4)cc3)c2c1 | > 100 µM | > 100 µM | > 100 µM | > 66.1 µM | > 100 µM | > 100 µM | > 100 µM | > 100 µM | > 100 µM | > 100 µM | > 100 µM | > 100 µM | > 100 µM |
| [N-]=[N+]=Nc1c(-c2ccccc2)c(=O)n(-c2ccccc2)c2ccccc12 | > 100 µM | > 100 µM | > 100 µM | > 100 µM | > 100 µM | > 100 µM | > 100 µM | > 100 µM | > 100 µM | – | > 100 µM | > 100 µM | > 100 µM |
| CCOP(=O)(Nc1ccc(-c2ccc(N)cc2)cc1)OCC | – | > 100 µM | > 100 µM | > 100 µM | > 100 µM | > 100 µM | > 100 µM | > 100 µM | > 100 µM | > 100 µM | – | > 100 µM | > 100 µM |
| Cc1nc(C)c(N2CCN(S(N)(=O)=O)CC2)c(=O)[nH]1 | > 100 µM | > 100 µM | > 100 µM | > 100 µM | > 100 µM | > 100 µM | > 100 µM | > 100 µM | – | > 100 µM | > 100 µM | > 100 µM | > 100 µM |
| CC(=O)C1C(=O)C(C(C)=O)C2C3C=CC(C3)C12 (stereo not given) | > 100 µM | > 100 µM | > 100 µM | > 100 µM | > 100 µM | > 100 µM | > 100 µM | > 100 µM | > 100 µM | > 100 µM | > 100 µM | > 100 µM | > 100 µM |
| CCOC(=O)C(NC(=O)c1ccccc1)(c1ccc(S(=O)(=O)Nc2onc(C)c2C)cc1)C(F)(F)F (stereo not given) | > 100 µM | > 100 µM | > 100 µM | > 100 µM | > 100 µM | > 100 µM | > 100 µM | > 100 µM | > 100 µM | > 100 µM | > 100 µM | > 100 µM | > 100 µM |
| COC(=O)C(CC(C)C)NC(=O)C(CCCN=C(N)N)NC(=O)OCc1ccccc1 (stereo not drawn) (Cbz-Arg-Leu-OMe; configuration not given here) | > 100 µM | > 100 µM | – | > 100 µM | > 100 µM | > 100 µM | > 100 µM | > 100 µM | > 100 µM | > 100 µM | > 100 µM | > 100 µM | > 100 µM |
